Values quoted from earlier work as cited in patent publication US6562243B2 (priority 2001, dated 2003).

Tested on: Legionella

For `[Ag]` [silver], the “silver level that kills Legionella” value is listed as 20 ppb.
